Entries after “also recorded” stand apart in the source; their conditions may differ. Like-named read-outs stand apart in the source and are kept apart here.
How the values were obtained:
[1] = tested on: inflammatory exudate (IE); assay: foreign body (sponge) method in the rat: inflammatory exudate volume; format: in vivo; details: rat, oral, 10 mg/kg, 8 hours
Experimental: (§1) These tests involved the use of 100 male CD strain rats (Charles River, Calco, LC, Italy) weighing 180±8 g. The animals were fasted for 12 hours (water ad libitum) before being used for the experiment.
(§2) The inflammatory reaction with the formation of exudate was induced by using sterilized polyester sponges (4×1.5×0.5 cm) soaked in carrageen dissolved at a 2% concentration in sterile physiological solution. The rats were anesthetized lightly with ether and two sponges per rat were implanted subcutaneously in a previously shaven dorsal area.
(§3) The sponges were removed 8 hours later after having sacrificed the animals by ether euthanasia, and immediately placed in large polyethylene 50 ml test tubes containing 10 ml of heparinized physiological solution. The test tubes were then subjected to centrifugation (1000 rotations; 15 minutes), followed by removal of the sponges and accurate measurement of the volume of the remaining fluid. Always using the Higgs et al. method, the acid lipids present in the fluid were extracted in chloroform with prior dilution in ethanol and acidification to pH 3. After complete evaporation of the chloroform, the remaining dry residue was dissolved in physiological solution and used for the immunoenzymatic assay of prostaglandin E2 (PGE2).
(§4) All the other reagents used for the tests were purchased from Merck-Bracco (Milan, Italy).

[2] = tested on: prostaglandin E2 (PGE2); assay: foreign body (sponge) method in the rat: PGE2 in the inflammatory exudate (immunoenzymatic assay); format: in vivo; details: rat, oral, 10 mg/kg, 8 hours
Experimental: as §1, §2, §3, §4

[3] = high quantities, intact and abraded skin, also long term; cited from earlier work
[4] = 100 mg i.m., cited from earlier work
[5] = Ketoprofen gel, cited from earlier work
[6] = 100 mg i.m., approx. 3 hours before operation; cited from earlier work
[7] = synovial fluid, 50 mg oral; cited from earlier work
[8] = in vivo; cited from earlier work
[9] = tested on: rat; details: cited from earlier work
[10] = cited from earlier work
[11] = tested on: carrageen edema; assay: carrageen edema test in the rat (hind paw volume, plethysmometer); details: rat, oral
[12] = once a day for three days, 12 hours

CC(C(=O)O)c1cccc(C(=O)c2ccccc2)c1 (stereo not drawn) [Ketoprofen, 3-Benzoyl-α-methylbenzeneacetic acid]
% inhibition versus controls of IE [1]: 58.6% | IE (inflammatory exudate) volume ([1]; mean ± MSE, controls 5.15 ± 0.28): 2.13 ± 0.15 mL | % inhibition versus controls of PGE2 [2]: 49.7% | PGE2 concentration in the inflammatory exudate ([2]; mean, controls 98.7 ± 4.7): 49.6 ng/mL | tolerability / toxicity following dermal application [3]: excellent tolerability and lack of acute and chronic toxicity; also recorded: did not induce any local or general harm | penetration into the joints ([4]; 15 minutes): penetrates promptly into the joints | serum and synovial concentration at equilibrium ([4]; 3.5 hours): 1.3 µg/mL | mean resident time in the joints vs serum [4]: about three times longer than that observed in serum | time of equilibrium of serum and synovial concentrations [4]: 3.5 h | AUC of the free Ketoprofen fraction in serum ([4]; serum): 127 ng·h/mL | time of maximum serum concentration ([4]; serum): 30 min | AUC of the free Ketoprofen fraction in synovial fluid ([4]; synovial fluid): 119 ng·h/mL | concentration when first detectable ([5]; 2nd hour, matrix not stated): 6.3 ng/mL | concentration in capsular tissue [5, 12]: 2.36 µg/g | concentration in intraarticular adipose tissue [5, 12]: 4.70 µg/g | concentration in synovial fluid [5, 12]: 1.31 µg/g | concentration in the joint vs systemic circulation [5]: greater active substance concentration in the joint than in systemic circulation | duration of constant values [5]: 12 h | time to peak concentration [5]: after six hours | mean value in blood [6]: 1.39 µg/g | mean value in bone [6]: 0.25 µg/g | mean value in fat [6]: 0.28 µg/g | mean value in muscle [6]: 0.26 µg/g | mean value in synovial fluid [6]: 0.85 µg/g | mean value in synovial membrane [6]: 0.32 µg/g | time of synovial peak [7]: approximately two hours after the plasma peak | elimination with the feces [8]: 1% | oral LD50 [9]: 165 mg/kg | time to peak concentration ([10]; intramuscular): ≤ 30 min | intraarticular concentrations vs serum and plasma, conclusion ([10]; various routes of administration): reach peak levels later with respect to those observable in serum and plasma, but remain at higher levels than the latter for a longer period after treatment and always with higher values compared to those present in circulatory flow | anti-inflammatory / anti-edematogenic effect [11]: also resulted as having anti-inflammatory activity | evolution of paw volume (delta in ml) at 1st hour ([11]; 10 mg/kg, 1st hour, mean ± MSE): 0.19 ± 0.02 mL | evolution of paw volume (delta in ml) at 2nd hour ([11]; 10 mg/kg, 2nd hour, mean ± MSE): 0.33 ± 0.03 mL | evolution of paw volume (delta in ml) at 3rd hour ([11]; 10 mg/kg, 3rd hour, mean ± MSE): 0.41 ± 0.02 mL | evolution of paw volume (delta in ml) at 4th hour ([11]; 10 mg/kg, 4th hour, mean ± MSE): 0.42 ± 0.02 mL | evolution of paw volume (delta in ml) at 5th hour ([11]; 10 mg/kg, 5th hour, mean ± MSE): 0.40 ± 0.03 mL | evolution of paw volume (delta in ml) at 6th hour ([11]; 10 mg/kg, 6th hour, mean ± MSE): 0.37 ± 0.03 mL | % inhibition vs controls (paw edema AUC) ([11]; 10 mg/kg, p < 0.001): 54.1% | AUC (mean ± MSE) of increase in paw volume ([11]; 10 mg/kg, paw volume (delta in ml) vs time (0 to 6 hours), controls 4.23 ± 0.26): 1.94 ± 0.10

From patent publication US6291527A (priority 1998, dated 2001)
